Measured values taken from ChEMBL document CHEMBL5625183, “Discovery of a novel dual-target inhibitor of CDK12 and PARP1 that induces synthetic lethality for treatment of triple-negative breast cancer” (Eur J Med Chem, 2023).
Calls of active or inactive are those of the source. The calls are words filed in the database; no cut-off is given here.

Key:
MDA-MB-231 [1] = test: Induction of cell cycle arrest in human MDA-MB-231 cells assessed as accumulation of cells at G1 phase at 10 uM measured after 24 hrs by PI staining based cytometry analysis (reference value: 68.55%); type: functional
MDA-MB-231 [2] = test: Antiproliferative activity against human MDA-MB-231 cells assessed as inhibition of cell growth incubated for 24 hrs by MTT assay; type: functional, cell-based; settings: MDA-MB-231, 24 h
[3] = Tmax in Sprague-Dawley rat at 1 mg/kg, iv measured upto 24 hrs by LC-MS/MS analysis; type: ADME, organism-based; settings: in vivo
[4] = target: Cyclin-dependent kinase 2 (Homo sapiens, UniProt P24941); test: Inhibition of CDK2 (unknown origin) at 1 uM relative to control
[5] = target: T1, Cyclin-dependent kinase 12 (Homo sapiens, UniProt Q9NYV4); test: Binding affinity to CDK12 in human MDA-MB-436 cells assessed as increase in protein thermal stabilization at 10 uM incubated for 6 hrs by CETSA based Western blot analysis; type: cell-based
MDA-MB-436 [6] = test: Antiproliferative activity against human MDA-MB-436 cells transfected with CDK12 M816A and PARP1 G863A mutant incubated for 24 hrs by MTT assay; type: functional, cell-based
MDA-MB-436 [7] = test: Induction of cell cycle arrest in human MDA-MB-436 cells assessed as accumulation of cells at S phase at 10 uM measured after 24 hrs by PI staining based cytometry analysis (reference value: 25.43%); type: functional
MDA-MB-436 [8] = test: Antiproliferative activity against human MDA-MB-436 cells transfected with wild type CDK12 and PARP1 G863A mutant incubated for 24 hrs by MTT assay; type: functional, cell-based
MDA-MB-231 [9] = test: Induction of apoptosis in human MDA-MB-231 cells assessed as increase in […] at 10 uM incubated for 24 hrs by Annexin V/PI staining based flow cytometry analysis; type: functional, cell-based
Mus musculus = test: In-vivo induction of DNA damage in ip dosed BALB/c mouse assessed as downregulation of RAD51 level in tumor administered once daily for 16 days by Western blot analysis; type: functional, organism-based; settings: dose 20-80 mg/kg, time 16.0 day
MDA-MB-468 [10] = test: Induction of […] in human MDA-MB-468 cells assessed as increase in gamma-H2AX foci formation at 10 uM incubated for 24 hrs by confocal laser scanning microscopic analysis; type: functional, cell-based
MDA-MB-231 [11] = test: Antiproliferative activity against human MDA-MB-231 cells transfected with wild type CDK12 and PARP1 G863A mutant incubated for 24 hrs by MTT assay; type: functional, cell-based
[12] = AUC (0 to t) in Sprague-Dawley rat at 1 mg/kg, iv measured upto 24 hrs by LC-MS/MS analysis; type: ADME, organism-based; settings: in vivo
[13] = target: T1, Cyclin-dependent kinase 12; test: Inhibition of CDK12 (unknown origin) at 20 uM in presence of ATP by kinase-glo plus luminescent assay relative to control
MDA-MB-436 [14] = test: Downregulation of Pol II CTD at ser2 residue expression in human MDA-MB-436 cells incubated for 24 hrs; type: functional, cell-based; settings: dose 5-20 µM
MDA-MB-231 [15] = test: Induction of apoptosis in human MDA-MB-231 cells assessed as downregulation of Bcl-2 expression incubated for 24 hrs; type: functional, cell-based; settings: dose 5-20 µM
[16] = AUC (0 to infinity) in Sprague-Dawley rat at 10 mg/kg, po measured upto 24 hrs by LC-MS/MS analysis; type: ADME, organism-based; settings: in vivo
[17] = target: Cyclin-dependent kinase 1 (Homo sapiens, UniProt P06493); test: Inhibition of CDK1 (unknown origin)
[18] = target: Cyclin-dependent kinase 5 (Homo sapiens, UniProt Q00535); test: Inhibition of CDK5 (unknown origin) at 1 uM relative to control
[19] = target: T1, Cyclin-dependent kinase 12; test: Inhibition of CDK12 (unknown origin) at 1 uM in presence of ATP by kinase-glo plus luminescent assay relative to control
MDA-MB-231 [20] = test: Antitumor activity against human MDA-MB-231 cells xenografted in ip dosed BALB/c mouse assessed as reduction in tumor growth administered once daily for 16 days; type: functional, organism-based; settings: dose 20-80 mg/kg, time 16.0 day
MDA-MB-231 [21] = test: Inhibition of cell migration in human MDA-MB-231 cells at 10 uM incubated for 24 hrs by transwell assay; type: functional, cell-based
[22] = MRT (0 to infinity) in Sprague-Dawley rat at 1 mg/kg, iv measured upto 24 hrs by LC-MS/MS analysis; type: ADME, organism-based; settings: in vivo
MDA-MB-436 [23] = test: Induction of cell cycle arrest in human MDA-MB-436 cells assessed as accumulation of cells at G1 phase at 5 uM measured after 24 hrs by PI staining based cytometry analysis (reference value: 72.04%); type: functional
[24] = Half life in Sprague-Dawley rat 1 mg/kg, iv measured upto 24 hrs by LC-MS/MS analysis; type: ADME, organism-based; settings: in vivo
[25] = target: Vascular endothelial growth factor receptor 3 (Homo sapiens) (UniProt P35916); test: Inhibition of FLT4 (unknown origin) at 1 uM relative to control
[26] = Clearance in Sprague-Dawley rat at 1 mg/kg, iv measured upto 24 hrs by LC-MS/MS analysis; type: ADME, organism-based; settings: in vivo
MDA-MB-468 [27] = test: Antiproliferative activity against human MDA-MB-468 cells assessed as inhibition of cell growth incubated for 24 hrs by MTT assay; type: functional, cell-based; settings: MDA-MB-468, 24 h
[28] = MRT (0 to infinity) in Sprague-Dawley rat at 10 mg/kg, po measured upto 24 hrs by LC-MS/MS analysis; type: ADME, organism-based; settings: in vivo
MDA-MB-231 [29] = test: Antiproliferative activity against human MDA-MB-231 cells transfected with CDK12 M816A and PARP1 G863A mutant incubated for 24 hrs by MTT assay; type: functional, cell-based
MDA-MB-468 [30] = test: Induction of apoptosis in human MDA-MB-468 cells assessed as upregulation of cleaved-caspase 3 expression incubated for 24 hrs; type: functional, cell-based; settings: dose 5-20 µM
MDA-MB-231 [31] = test: […] DNA repair in human MDA-MB-231 cells assessed as decrease in RAD51 level at 10 uM incubated for 24 hrs by confocal laser scanning microscopic analysis; type: functional, cell-based
MDA-MB-231 [32] = test: Antiproliferative activity against human MDA-MB-231 cells assessed as decrease in number of colony formation at 10 uM measured after 24 days by crystal violet staining based analysis; type: functional, cell-based; settings: time 24.0 day
MDA-MB-231 [33] = test: Induction of cell cycle arrest in human MDA-MB-231 cells assessed as accumulation of cells at G2 phase at 5 uM measured after 24 hrs by PI staining based cytometry analysis (reference value: 8.44 %); type: functional
MDA-MB-231 [34] = test: Induction of cell cycle arrest in human MDA-MB-231 cells assessed as accumulation of cells at S phase at 5 uM measured after 24 hrs by PI staining based cytometry analysis (reference value: 23.01 %); type: functional
MDA-MB-436 [35] = test: Induction of cell cycle arrest in human MDA-MB-436 cells assessed as accumulation of cells at G1 phase at 20 uM measured after 24 hrs by PI staining based cytometry analysis (reference value: 72.04%); type: functional
[36] = target: T1, Cyclin-dependent kinase 12; test: Inhibition of CDK12 in human MDA-MB-436 cells assessed as effect on Pol II CTD at ser7 residue phosphorylation incubated for 24 hrs; type: cell-based; settings: dose 5-20 µM
[37] = Half life in Sprague-Dawley rat 10 mg/kg, po measured upto 24 hrs by LC-MS/MS analysis; type: ADME, organism-based; settings: in vivo
[38] = Tmax in Sprague-Dawley rat at 10 mg/kg, po measured upto 24 hrs by LC-MS/MS analysis; type: ADME, organism-based; settings: in vivo

T1 sequence (Q9NYV4 whole entry, looked up): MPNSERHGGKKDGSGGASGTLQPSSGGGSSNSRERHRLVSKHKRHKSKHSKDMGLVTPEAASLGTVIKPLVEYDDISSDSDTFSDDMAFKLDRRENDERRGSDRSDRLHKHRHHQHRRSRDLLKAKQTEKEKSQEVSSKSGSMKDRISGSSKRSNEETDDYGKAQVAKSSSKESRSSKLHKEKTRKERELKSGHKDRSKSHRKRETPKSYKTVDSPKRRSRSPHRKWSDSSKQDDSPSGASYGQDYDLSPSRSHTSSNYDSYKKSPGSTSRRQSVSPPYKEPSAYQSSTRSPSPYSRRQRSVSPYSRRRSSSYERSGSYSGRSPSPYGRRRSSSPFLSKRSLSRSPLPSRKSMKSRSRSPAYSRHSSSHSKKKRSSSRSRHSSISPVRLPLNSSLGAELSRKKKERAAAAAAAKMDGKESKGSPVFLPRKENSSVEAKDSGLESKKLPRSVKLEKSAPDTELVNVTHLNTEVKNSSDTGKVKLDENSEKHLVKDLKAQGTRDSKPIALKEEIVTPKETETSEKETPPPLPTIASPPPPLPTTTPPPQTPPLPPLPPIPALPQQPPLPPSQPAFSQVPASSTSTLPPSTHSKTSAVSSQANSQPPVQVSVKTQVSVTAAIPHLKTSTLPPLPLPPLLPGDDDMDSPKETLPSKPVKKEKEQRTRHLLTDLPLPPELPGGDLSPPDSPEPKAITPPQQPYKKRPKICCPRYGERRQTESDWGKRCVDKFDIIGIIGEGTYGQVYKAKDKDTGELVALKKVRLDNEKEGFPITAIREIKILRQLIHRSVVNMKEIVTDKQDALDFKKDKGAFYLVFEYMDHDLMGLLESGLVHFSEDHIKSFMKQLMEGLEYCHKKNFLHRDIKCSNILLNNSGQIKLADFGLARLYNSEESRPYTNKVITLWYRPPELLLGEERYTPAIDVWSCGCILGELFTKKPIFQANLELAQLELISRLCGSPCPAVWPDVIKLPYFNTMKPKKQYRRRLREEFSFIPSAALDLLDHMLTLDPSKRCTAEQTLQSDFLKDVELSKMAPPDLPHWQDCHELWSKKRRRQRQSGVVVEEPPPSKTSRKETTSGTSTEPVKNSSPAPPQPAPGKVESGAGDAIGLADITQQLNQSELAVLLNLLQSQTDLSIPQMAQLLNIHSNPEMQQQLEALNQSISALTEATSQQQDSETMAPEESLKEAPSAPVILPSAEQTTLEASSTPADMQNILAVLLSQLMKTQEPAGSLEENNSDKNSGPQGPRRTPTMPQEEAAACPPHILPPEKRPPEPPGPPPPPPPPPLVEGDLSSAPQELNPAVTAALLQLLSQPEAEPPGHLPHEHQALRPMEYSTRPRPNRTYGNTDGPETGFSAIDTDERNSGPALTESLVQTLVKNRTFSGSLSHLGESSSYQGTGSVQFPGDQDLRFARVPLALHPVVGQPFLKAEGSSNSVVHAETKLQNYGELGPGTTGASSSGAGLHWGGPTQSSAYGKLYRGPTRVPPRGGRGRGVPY
Sequence of Cyclin-dependent kinase 1 (P06493 whole entry): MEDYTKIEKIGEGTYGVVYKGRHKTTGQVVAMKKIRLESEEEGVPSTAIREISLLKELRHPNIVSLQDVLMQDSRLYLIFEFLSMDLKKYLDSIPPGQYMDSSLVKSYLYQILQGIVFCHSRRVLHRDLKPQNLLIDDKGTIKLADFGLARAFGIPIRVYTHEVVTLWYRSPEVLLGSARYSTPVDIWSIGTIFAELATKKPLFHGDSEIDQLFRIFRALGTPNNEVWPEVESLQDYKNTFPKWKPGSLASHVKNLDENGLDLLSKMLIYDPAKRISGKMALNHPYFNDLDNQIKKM
Sequence of Cyclin-dependent kinase 5 (Q00535 whole entry, looked up): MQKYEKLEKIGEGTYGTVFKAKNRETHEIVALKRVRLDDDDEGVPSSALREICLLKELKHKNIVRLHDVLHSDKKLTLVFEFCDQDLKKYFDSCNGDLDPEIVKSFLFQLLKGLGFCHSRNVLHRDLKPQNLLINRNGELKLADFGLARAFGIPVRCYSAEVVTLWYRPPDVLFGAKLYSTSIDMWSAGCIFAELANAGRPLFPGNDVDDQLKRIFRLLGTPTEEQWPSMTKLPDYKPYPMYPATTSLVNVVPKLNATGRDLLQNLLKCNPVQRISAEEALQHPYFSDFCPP
Sequence of Vascular endothelial growth factor receptor 3 (Homo sapiens) (P35916 whole entry): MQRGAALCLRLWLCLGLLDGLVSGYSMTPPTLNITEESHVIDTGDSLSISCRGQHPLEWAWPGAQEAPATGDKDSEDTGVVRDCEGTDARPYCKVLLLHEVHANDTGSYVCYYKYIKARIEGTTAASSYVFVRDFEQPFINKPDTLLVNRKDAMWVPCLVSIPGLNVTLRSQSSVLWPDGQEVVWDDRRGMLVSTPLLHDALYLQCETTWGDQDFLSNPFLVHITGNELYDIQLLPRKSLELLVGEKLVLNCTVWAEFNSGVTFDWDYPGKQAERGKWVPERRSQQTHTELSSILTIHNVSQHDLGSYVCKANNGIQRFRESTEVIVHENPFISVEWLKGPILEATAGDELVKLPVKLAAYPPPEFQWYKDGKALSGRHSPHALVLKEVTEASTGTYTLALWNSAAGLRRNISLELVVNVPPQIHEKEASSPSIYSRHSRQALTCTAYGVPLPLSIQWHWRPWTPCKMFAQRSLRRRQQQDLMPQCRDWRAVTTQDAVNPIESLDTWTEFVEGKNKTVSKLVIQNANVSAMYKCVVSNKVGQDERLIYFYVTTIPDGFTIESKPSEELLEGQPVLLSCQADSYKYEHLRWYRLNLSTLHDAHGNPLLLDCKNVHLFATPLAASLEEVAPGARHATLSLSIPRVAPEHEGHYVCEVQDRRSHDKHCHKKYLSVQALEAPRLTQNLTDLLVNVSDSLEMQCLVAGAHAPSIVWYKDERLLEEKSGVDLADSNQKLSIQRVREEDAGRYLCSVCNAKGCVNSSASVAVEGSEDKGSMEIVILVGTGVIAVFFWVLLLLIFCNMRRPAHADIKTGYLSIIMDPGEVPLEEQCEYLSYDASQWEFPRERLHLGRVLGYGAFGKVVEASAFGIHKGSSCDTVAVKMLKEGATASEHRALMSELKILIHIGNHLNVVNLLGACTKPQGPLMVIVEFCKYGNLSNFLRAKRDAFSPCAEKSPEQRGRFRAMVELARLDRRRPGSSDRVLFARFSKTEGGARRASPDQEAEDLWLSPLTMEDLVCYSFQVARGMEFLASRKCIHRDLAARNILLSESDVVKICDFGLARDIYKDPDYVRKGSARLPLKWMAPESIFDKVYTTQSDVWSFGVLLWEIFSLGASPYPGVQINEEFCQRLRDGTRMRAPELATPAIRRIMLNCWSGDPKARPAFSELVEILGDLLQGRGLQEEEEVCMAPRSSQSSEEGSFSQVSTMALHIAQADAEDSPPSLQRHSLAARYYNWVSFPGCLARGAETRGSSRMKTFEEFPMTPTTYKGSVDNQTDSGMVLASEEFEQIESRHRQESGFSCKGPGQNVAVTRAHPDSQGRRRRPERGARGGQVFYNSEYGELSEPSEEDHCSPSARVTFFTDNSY

For NC(=O)c1cccc2[nH]c(NC(=O)c3cccc(C(=O)N4CCC(Nc5ncc(I)cn5)CC4)c3)nc12, the Activity (MDA-MB-231 [1]) was 61.71%, the IC50 (MDA-MB-231 [2]) was 8.5 µM and the Tmax [3] was 4.8 min. The inhibition [4] was > 60%, the Activity [5] was “Active” and the Activity (MDA-MB-436 [6]) was “Active”. The Activity (MDA-MB-436 [7]) was 25.71%, the Activity (MDA-MB-436 [8]) was “Active” and the Activity (MDA-MB-231 [9]) was “Active”. For the same compound, the Activity (Mus musculus) was “Dose-Dependent Effect”, the Activity (MDA-MB-468 [10]) was “Active” and the Activity (MDA-MB-231 [11]) was “Active”. For the same compound, the AUC(0-t) at 24 h [12] was 1250 ng·h/mL, the inhibition [13] was “Active” and the Activity (MDA-MB-436 [14]) was “Dose-Dependent Effect”. For the same compound, the Activity (MDA-MB-231 [15]) was “Dose-Dependent Effect”, the AUC(0-inf) [16] was 71.2 ng·h/mL and the IC50 [17] was 0.517 µM. For the same compound, the inhibition [18] was > 60%, the inhibition [19] was 77.3% and the Activity (MDA-MB-231 [20]) was “Dose-Dependent Effect”. The inhibition (MDA-MB-231 [21]) was “Active”, the MRT inf [22] was 1.87 h and the Activity (MDA-MB-436 [23]) was 69.11%. The half-life [24] was 3 h, the inhibition [25] was > 60% and the clearance [26] was 12.5 mL/min/kg. For the same compound, the IC50 (MDA-MB-468 [27]) was 9.7 µM, the MRT inf [28] was 4.76 h and the Activity (MDA-MB-231 [29]) was “Active”. For the same compound, the Activity (MDA-MB-468 [30]) was “Dose-Dependent Effect”, the Activity (MDA-MB-231 [31]) was “Active” and the Activity (MDA-MB-231 [32]) was “Active”. For the same compound, the Activity (MDA-MB-231 [33]) was 16.84%, the Activity (MDA-MB-231 [34]) was 19.81% and the Activity (MDA-MB-436 [35]) was 63.76%. For the same compound, the inhibition [36] was “Dose-Dependent Effect”, the half-life [37] was 2.39 h and the Tmax [38] was 1.58 h.
